Measured values reported in patent US6949571B2, “1,2-dihydropyridine compounds, process for preparation of the same and use thereof” (Eisai Co., Ltd., priority 2000, dated 2005).
Read-outs that look alike come from different tables or passages of the source.

Assays:
[1] = test system: convulsions induced by AMPA; assay: Anticonvulsant action induced by AMPA; type: in vivo, mice of ddy strain; conditions: 25 mg/kg orally, male ddy mice; AMPA continuously injected into lateral ventricle 30 minutes or 1 hour after
Method: A test compound was suspended in a 0.5% methyl cellulose solution or in sesame oil and was orally administered (25 mg/kg) to male mice of ddy strain. After 30 minutes or 1 hour from the oral administration, AMPA was continuously injected ([…]/5 μl/minute/mouse) into lateral ventricle to induce the convulsions. The effect was judged by a time-extending action until the convulsion takes place by a continuous injection of AMPA.

[2] = test system: experimental autoimmune encephalomyelitis; assay: Experimental autoimmune encephalomyelitis model; type: in vivo; conditions: p.o. 5, 10 and 20 mg/kg, 10-16 days post immunisation, female Lewis rats, versus vehicle
Method: Female Lewis rats (205±10 g) obtained from Charles River, Kent UK, were housed in pairs under environmentally controlled conditions (6:00 a.m.-6:00 p.m. light/dark cycle; 22-24° C.; 45-55% humidity) and allowed free access to food and water. Experimental groups consisted of 9-12 animals. Rats were immunised in each hind foot with 20-50 μl of inoculum containing 50 μg guinea pig myelin basic protein (MBP; final concentration 2 mg/ml), emulsified in Freund's complete adjuvant (CFA; Sigma, UK) containing Mycobacterium tuberculosis H37Ra (final concentration 5.5 mg/ml; Difco Laboratories, UK). Animals were weighed and monitored daily and clinical disease scored as (O) no clinical signs; (1) flaccid tail and weight loss; (2) hind limb hypotonia with further weight loss; (3) complete hind limb paralysis; (4) paraplegia and (5) death. […] During the period of compound administration (10-16 days post immunisation; dpi) animals were scored 15 h after injection of vehicle or compound to avoid any acute effect of treatment on disease score. Compounds were dissolved/suspended in 0.5% methyl cellulose using a hand held Polytron homogeniser (PT1200; 2 min). Rats were dosed p.o. with either methyl cellulose vehicle (2.5 ml/kg) or compound at 5, 10 and 20 mg/kg. Results: the compound of the invention is improved in view of experimental autoimmune encephalomyelitis.

[3] = test system: AMPA receptor;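 note: primary rat embryonic cortical neurons grown on an astrocyte layer in 96-well plates, used after at least 8 to 10 days in culture, Fura2-AM fluorescence ratio at 340/380 nm excitation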
Method: Cerebral cortex was cut out from the brain of rat of gestational 18 days and treated with trypsin and DNase to disperse the cells. The cells were flown by MEM containing 10% of serum, sown in a culture bottle and astrocytes were proliferated. The astrocytes were re-dispersed by trypsin and sown in a 96-well plate. After incubation for one week, it was confirmed that the astrocytes covered all over the bottom and then the nerve cells of cerebral cortex which was dispersed by the above method were sown thereupon. After incubation for 24 hours, the medium was changed, the incubation was carried out for one week and, after that, the medium was changed to that containing 1 μM of MK-801. Nerve cells which were incubated for not shorter than 8 to 10 days were used.
Calcium influx into the cells was measured using Fura2-AM which was a calcium-sensitive fluorescent dye. It was treated in a medium containing Fura2-AM for 1 hour, incorporated into the cells, exchanged to a Tyrode solution containing 1 μM MK-801 and stimulation was carried out using 2 μM AMPA. Change in the amount of calcium flown into the cells were measured as the change in the fluorescent intensity at the exciting wave length of 340/380 nm.

[4] = Table 1, primary culture of rat embryo cerebral cortex nerve cells, 2 μM AMPA, 1 μM MK-801
[5] = Table 2, suppression of AMPA-induced calcium influx into nerve cells

Q: With N#Cc1ccccc1-c1cc(-c2ccccn2)cn(-c2ccccc2)c1=O [Example 7, 3-(2-Cyanophenyl)-5-(2-pyridyl)-1-phenyl-1,2-dihydropyridin-2-one] as the compound, how does the “anticonvulsant action (time-extending action until the convulsion takes place)” value (shortened to “anticonvulsant action”) [1] read?
A: significant anticonvulsant action

Q: And the “effect on experimental autoimmune encephalomyelitis (clinical disease score)” value (“effect” for short) [2]?
A: superior effect to the vehicle-administered group

Q: What about the IC50 [3, 4] of the same compound?
A: 0.1 µM

Q: Which “anticonvulsant action” value [1] does the source give for N#Cc1ccccc1-c1cc(-c2ccccn2)cn(-c2cccnc2)c1=O [Example 32, 3-(2-Cyanophenyl)-5-(2-pyridyl)-1-(3-pyridyl)-1,2-dihydropyridin-2-one] here?
A: significant anticonvulsant action

Q: And the “effect” value [2]?
A: superior effect to the vehicle-administered group

Q: What about the IC50 [3, 4] of the same compound?
A: 0.1 µM

Q: What does the source list for O=c1c(-c2cccnc2F)cc(-c2ccccn2)cn1-c1ccccc1 [Example 76, 3-(2-Fluoro-3-pyridyl)-5-(2-pyridyl)-1-phenyl-1,2-dihydropyridin-2-one]?
A: anticonvulsant action (time-extending action until the convulsion takes place) [1]: significant anticonvulsant action; effect on experimental autoimmune encephalomyelitis (clinical disease score) [2]: superior effect to the vehicle-administered group; IC50 [3, 4]: 0.1 µM

Q: Which results are given for O=c1c(-c2cccnc2F)cc(-c2ccccn2)cn1-c1cccnc1 [Example 139, 3-(2-Fluoro-3-pyridyl)-5-(2-pyridyl)-1-(3-pyridyl)-1,2-dihydropyridin-2-one]?
A: anticonvulsant action (time-extending action until the convulsion takes place) [1]: significant anticonvulsant action; effect on experimental autoimmune encephalomyelitis (clinical disease score) [2]: superior effect to the vehicle-administered group; IC50 [3, 5]: 0.3 µM

Q: For N#Cc1ccccc1-c1cc(-c2ncccn2)cn(-c2ccccc2)c1=O [Example 164, 3-(2-Cyanophenyl)-1-phenyl-5-(2-pyrimidinyl)-1,2-dihydropyridin-2-one], which “anticonvulsant action” value [1] is on record?
A: significant anticonvulsant action

Q: And the “effect” value [2]?
A: superior effect to the vehicle-administered group

Q: And the IC50 [3, 5]?
A: 0.08 µM

Q: For N#Cc1ccccc1-c1cc(-c2ncccn2)cn(-c2cccnc2)c1=O [Example 261, 3-(2-Cyanophenyl)-1-(3-pyridyl)-5-(2-pyrimidinyl)-1,2-dihydropyridin-2-one], which “anticonvulsant action” value [1] is on record?
A: significant anticonvulsant action

Q: What about the “effect” value [2] of the same compound?
A: superior effect to the vehicle-administered group

Q: And the IC50 [3, 5]?
A: 0.08 µM

Q: Which results are given for O=c1c(-c2cccnc2F)cc(-c2ncccn2)cn1-c1ccccc1 [Example 262, 3-(2-Fuluoropyridin-3-yl)-1-phenyl-5-(2-pyrimidinyl)-1,2-dihydropyridin-2-one]?
A: anticonvulsant action (time-extending action until the convulsion takes place) [1]: significant anticonvulsant action; effect on experimental autoimmune encephalomyelitis (clinical disease score) [2]: superior effect to the vehicle-administered group; IC50 [3, 5]: 0.3 µM

Q: N#Cc1ncccc1-c1cc(-c2ncccn2)cn(-c2ccccc2)c1=O [Example 264, 3-(2-Cyanopyridin-3-yl)-1-phenyl-5-(2-pyrimidinyl)-1,2-dihydropyridin-2-one] was tested. Which “anticonvulsant action” value [1] did it give?
A: significant anticonvulsant action

Q: What about the “effect” value [2] of the same compound?
A: superior effect to the vehicle-administered group

Q: What about the IC50 [3, 5] of the same compound?
A: 0.05 µM
